Residues, ends and D or L forms follow the SMILES beside them. *: point of attachment. Cbz = O=C(OCc1ccccc1)*; OtBu = CC(C)(C)O*
Key:
[1] = tested on: M-CSF-treated human monocytes; assay: Cytokine production in response to various stimuli (ELISA); assay type: cell-based; details: production induced by the stimulus; means of 4-11 experiments
Method: The elutriated human monocytes were incubated at approximately 2×10^6/ml in RPMI 1640 with 25 mM HEPES and 2 mM L-glutamine, supplemented with 5% (v/v) heat inactivated fetal calf serum and 10 units/ml penicillin/streptomycin. […] The cells were then replated on 100 mm Petri dishes and infected for 2 h with a m.o.i. of between 10:1 and 120:1 (in most experiments, 20:1. 40:1 or 80:1 was used) of either AdvIκBα or Adv0, in serum-free RPMI 1640. Cells were then incubated in RPMI 1640 supplemented as above for 48 h to allow for significant over-expression of IκBα, as assessed. During the changes of medium involved, non-adherent cells were discarded, resulting in a further purification of monocyte-derived macrophages.
(§1) In the assays for cytokine production, cells were replated at 5×10^5 cells per well on a 96-well dish, and stimulated as above for 4 or 16 h. Supernatants were analysed for TNFα (27), IL-1β, IL-6 and IL-8 (23), IL-10 (29, 30), IL-1ra and the p55 and p75 soluble TNF receptors (31) by ELISA. The proteosome inhibitor Cbz-Ile-Glu(O-t-Bu)-Ala-leucinal (PSI) was obtained from Calbiochem (Nottingham. England).
LPS is capable of inducing all the cytokines (TNFα, IL-1β, IL-6, IL-8) and inhibitors (IL-10, IL-1ra and the soluble TNF receptors) assayed in this study (Table I; the results are means of 4-11 experiments). The induction of TNFα mRNA by zymosan, has previously been reported to be far weaker than LPS-induced TNFα mRNA in mouse peritoneal macrophages (32), but the TNFα response to zymosan in M-CSF-treated human monocytes was equal to that of LPS (Table 1).

[2] = tested on: human monocyte-derived macrophages; assay: Effect of proteosome inhibitor PSI on induced TNFα production; assay type: cell-based; details: FIG. 14
Method: as §1
The independence from NFκB of zymosan induced TNF was further emphasised by studies with the proteosome inhibitor PSI. Inhibition of proteosome function inhibits IκBα degradation thus preventing NFκB nuclear translocation.

[3] = tested on: primary human monocytes; assay: Adenoviral infection of primary human monocytes (β-galactosidase expression by FACS); assay type: cell-based; details: prior cytokine treatment for 72 hours, then β-galactosidase adenovirus at 100 m.o.i.
Method: Human monocytes or murine RAW 264.7 were cultured at 5×10^5/ml in RPM1 1640 (Bio Whittaker inc.) supplemented with 5% (v/v) heat inactivated foetal calf serum containing 10 units/ml penicillin/streptomycin and 2 mM glutamine at 37° C. Monocytes were treated with GM-CSF (5U/ml) or M-CSF (1 μg/ml) for 72 hours. Expression of integrins was assayed by indirect immunofluorescence and FACS analysis using monoclonal antibodies to αVβ3 (100 μg/ml LM609, provided by IXSYS Corp. (San Diego Calif. USA), or αVβ5 (undiluted active supernatant kindly provided by J. Gamble Smith). The commercially available monoclonal antibody OX14(100 μg/ml) was used as a negative control.
Following cytokine treatment monocytes were washed in RPM 1640 and resuspended at 5×10^5 cells/ml. The cells were infected with virus at the indicated plaque forming units per cell (multiplicity of infection—m.o.i.). β-galactosidase expression in individual cells was measured by FACS.

[4] = tested on: U937; assay: Adenovirus infection and integrin induction in U937 cell line; assay type: cell-based, human; details: results not shown
[5] = tested on: THP-1; assay: Adenovirus infection and integrin induction in THP-1 cell line; assay type: cell-based, human; details: results not shown

Row | Molecule | Anti-inflammatory cytokines: IL-10 [1] [pg/mL] | Anti-inflammatory cytokines: IL-tra [1] [pg/mL] | Anti-inflammatory cytokines: P55 s TNF-R [1] [pg/mL] | Anti-inflammatory cytokines: P75 s TNF-R [1] [pg/mL] | Proinflammatory cytokines: IL-1 [1] [pg/mL] | Proinflammatory cytokines: IL-6 [1] [pg/mL] | Proinflammatory cytokines: IL-8 [1] [pg/mL] | Proinflammatory cytokines: TNFα [1] [pg/mL] | cells expressing the β-galactosidase gene [3] [%] | induction of αVβ3 or αVβ5 expression [4] | induction of αVβ3 or αVβ5 expression [5] | also measured
1 | C[C@H](CCC(=O)O)C[C@H](C)C[C@H](C)C(=O)/C=C(\O)[C@H](C)C[C@H](C)C/C=C/[C@@H](C)[C@@H](O)[C@@H](C)[C@@H](O)C[C@@H]1CC[C@@](C)([C@H]2CC[C@@](C)([C@@H](C)O)O2)O1 [Lomycin, ionomycin] | 0 | 0 | 0 | 0 | 0 | 0 | 900 | 0 |  |  |  | 
2 | CCCCCCCCCCCCCC(=O)O[C@@H]1[C@@H](C)[C@@]2(O)[C@@H](C=C(CO)C[C@]3(O)C(=O)C(C)=C[C@@H]23)[C@@H]2C(C)(C)[C@]12OC(C)=O [PMA] | 0 | 1000 | 0 | 500 | 400 | 300 | 3000 | 6000 |  |  |  | 
3 | CC[C@H](C)[C@H](NC(=O)OCc1ccccc1)C(=O)N[C@@H](CCC(=O)OC(C)(C)C)C(=O)N[C@@H](C)C(=O)N[C@H](C=O)CC(C)C [PSI, Cbz-Ile-Glu(O-t-Bu)-Ala-leucinal] (Cbz-IE(OtBu)AL-aldehyde) |  |  |  |  |  |  |  |  |  |  |  | effect on LPS induced TNF production ([2]; LPS): very effective in blocking; effect on zymosan-induced TNF production ([2]; zymosan): did not affect
4 | GM-CSF: granulocyte-macrophage colony stimulating factor |  |  |  |  |  |  |  |  | 52 | neither cytokine was able to induce | neither cytokine was able to induce | 
5 | TNFα | 0 |  |  |  | 200 | 2000 |  |  |  |  |  | 
6 | M-CSF: macrophage colony stimulating factor (protein, UniProt P09603 33-554, looked up) Macrophage colony-stimulating …: EEVSEYCSHMIGSGHLQSLQRLIDSQMETSCQITFEFVDQEQLKDPVCYLKKAFLLVQDIMEDTMRFRDNTPNAIAIVQLQELSLRLKSCFTKDYEEHDKACVRTFYETPLQLLEKVKNVFNETKNLLDKDWNIFSKNCNNSFAECSSQDVVTKPDCNCLYPKAIPSSDPASVSPHQPLAPSMAPVAGLTWEDSEGTEGSSLLPGEQPLHTVDPGSAKQRPPRSTCQSFEPPETPVVKDSTIGGSPQPRPSVGAFNPGMEDILDSAMGTNWVPEEASGEASEIPVPQGTELSPSRPGGGSMQTEPARPSNFLSASSPLPASAKGQQPADVTGTALPRVGPVRPTGQDWNHTPQKTDHPSALLRDPPEPGSPRISSLRPQGLSNPSTLSAQPQLSRSHSSGSVLPLGELEGRRSTRDRRSPAEPEGGPASEGAARPLPRFNSVPLTDTGHERQSEGSFSPQLQESVFHLLVPSVILVLLAVGGLLFYRWRRRSHQEPQRADSPLEQPEGSPLTQDDRQVELPV |  |  |  |  |  |  |  |  | 90 | neither cytokine was able to induce | neither cytokine was able to induce | 
